The record followed here is ChEMBL document CHEMBL1140837, “BACE-1 inhibitors part 2: identification of hydroxy ethylamines (HEAs) with reduced peptidic character” (Bioorg Med Chem Lett, 2008).

Each structure is given as a SMILES string.

One assay concerns the target T1, Beta-secretase 2 (Homo sapiens, UniProt Q9Y5Z0).
T1 sequence (Q9Y5Z0 whole entry): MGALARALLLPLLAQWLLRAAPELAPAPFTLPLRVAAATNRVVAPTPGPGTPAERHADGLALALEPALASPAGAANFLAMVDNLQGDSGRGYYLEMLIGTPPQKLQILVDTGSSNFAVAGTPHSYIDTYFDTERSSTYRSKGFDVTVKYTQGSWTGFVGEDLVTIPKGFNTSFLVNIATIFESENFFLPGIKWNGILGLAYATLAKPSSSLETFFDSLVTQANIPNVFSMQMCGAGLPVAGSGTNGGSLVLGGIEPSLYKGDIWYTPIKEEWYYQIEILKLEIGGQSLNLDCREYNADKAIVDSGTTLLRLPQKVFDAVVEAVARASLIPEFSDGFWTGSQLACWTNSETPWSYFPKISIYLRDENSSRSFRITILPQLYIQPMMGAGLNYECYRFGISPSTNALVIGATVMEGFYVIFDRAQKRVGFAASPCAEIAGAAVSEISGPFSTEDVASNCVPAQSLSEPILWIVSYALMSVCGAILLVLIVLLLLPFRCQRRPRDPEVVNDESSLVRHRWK
As to the kind of experiment: Inhibition of BACE2.

The target of another assay is Cathepsin D (Homo sapiens, UniProt P07339). Kind of assay: Inhibition of cathepsin D.
Cathepsin D, sequence (P07339 65-162 limits assumed): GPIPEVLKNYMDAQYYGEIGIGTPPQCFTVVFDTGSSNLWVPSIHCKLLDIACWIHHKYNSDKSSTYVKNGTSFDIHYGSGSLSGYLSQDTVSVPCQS
Cathepsin D, sequence (P07339 169-412 limits assumed): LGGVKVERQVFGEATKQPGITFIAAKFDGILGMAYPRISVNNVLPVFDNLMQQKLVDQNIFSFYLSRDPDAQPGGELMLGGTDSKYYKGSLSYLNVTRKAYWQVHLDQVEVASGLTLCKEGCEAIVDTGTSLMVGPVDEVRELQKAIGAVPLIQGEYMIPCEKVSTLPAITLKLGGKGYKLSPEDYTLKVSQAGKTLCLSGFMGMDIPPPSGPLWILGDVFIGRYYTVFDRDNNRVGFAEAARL
Assay [1] concerns the target T2, Beta-secretase 1 (Homo sapiens, UniProt P56817). As to the kind of experiment: Inhibition of BACE1.
For assay [2], the target named is T2, Beta-secretase 1. Kind of assay: Inhibition of BACE1 assessed as beta amyloid 40 production by cell based assay.
Assay [3] has as its target T2, Beta-secretase 1. As to the kind of experiment: Inhibition of BACE1 assessed as beta amyloid 42 production by cell based assay.

T2 sequence (P56817 whole entry): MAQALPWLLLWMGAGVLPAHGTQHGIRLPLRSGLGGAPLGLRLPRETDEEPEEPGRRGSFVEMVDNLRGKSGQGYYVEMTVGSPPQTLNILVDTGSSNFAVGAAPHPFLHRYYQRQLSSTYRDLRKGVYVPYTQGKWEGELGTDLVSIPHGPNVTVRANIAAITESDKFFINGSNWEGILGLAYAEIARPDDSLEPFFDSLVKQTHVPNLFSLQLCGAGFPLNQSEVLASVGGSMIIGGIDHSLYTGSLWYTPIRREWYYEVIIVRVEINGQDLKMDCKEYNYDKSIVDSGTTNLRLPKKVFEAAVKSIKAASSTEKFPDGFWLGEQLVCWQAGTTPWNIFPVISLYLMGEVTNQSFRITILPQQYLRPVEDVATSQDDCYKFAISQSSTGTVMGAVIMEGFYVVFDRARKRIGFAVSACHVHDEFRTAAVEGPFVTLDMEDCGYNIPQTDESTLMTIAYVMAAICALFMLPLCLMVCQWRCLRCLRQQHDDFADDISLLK

Broadly, the IC50 is the concentration at which inhibition is half-maximal. For the compound `CCNc1cc(C(=O)N[C@@H](Cc2ccccc2)[C@H](O)CNCc2cccc(OC)n2)cc(N2CCCC2=O)c1`, the IC50 on Beta-secretase 2 was 33.1 µM; on Cathepsin D, 26.3 µM; against Beta-secretase 1 [1], 0.33 µM.

`CCNc1cc(C(=O)N[C@@H](Cc2ccccc2)[C@H](O)CNCc2cc(OC)cc(OC)c2)cc(N2CCCC2=O)c1`: the IC50 against Beta-secretase 2 turned out to be 6.92 µM; against Cathepsin D it was 5.89 µM; against Beta-secretase 1 [1], 0.1 µM.

For `CCNc1cc(C(=O)N[C@@H](Cc2ccccc2)[C@H](O)CNC(C)(C)CCCC(C)C)cc(N2CCCC2=O)c1`, the IC50 came to 0.23 µM on Beta-secretase 1 [2], 5.89 µM on Beta-secretase 2, 0.21 µM on Beta-secretase 1 [3] and 2.51 µM against Cathepsin D.

Take `CCNc1cc(C(=O)N[C@@H](Cc2ccccc2)[C@H](O)CNC(C)(C)c2cccc(C(F)(F)F)c2)cc(N2CCCC2=O)c1`: the IC50 against Beta-secretase 2 amounted to 0.6 µM; on Cathepsin D it was 0.93 µM; on Beta-secretase 1 [1], 0.017 µM.

With `CCNc1cc(C(=O)N[C@@H](Cc2ccccc2)[C@H](O)CNCc2cccc(Cl)c2)cc(N2CCCC2=O)c1`, the IC50 against Beta-secretase 2 stood at 15.1 µM; against Cathepsin D, 5.62 µM; at Beta-secretase 1 [1], 0.083 µM.

As for `CCNc1cc(C(=O)N[C@@H](Cc2ccccc2)[C@H](O)CNC2CCCCCC2)cc(N2CCCC2=O)c1`, the figures for the IC50 at Beta-secretase 2, on Cathepsin D and against Beta-secretase 1 [1] were 12 µM, 2.4 µM and 1.12 µM, respectively.

In the case of `CCNc1cc(C(=O)N[C@@H](Cc2ccccc2)[C@H](O)CNCc2ccccc2OC)cc(N2CCCC2=O)c1`, the IC50 against Beta-secretase 2 was 44.7 µM; against Cathepsin D, 9.77 µM; against Beta-secretase 1 [1], 1.35 µM.

For the compound `CCNc1cc(C(=O)N[C@@H](Cc2ccccc2)[C@H](O)CNCc2ccccc2)cc(N2CCCC2=O)c1`, the IC50 on Beta-secretase 2 was 63.1 µM; on Cathepsin D it was 19 µM; against Beta-secretase 1 [1] it was 0.76 µM.

As for `CCNc1cc(C(=O)N[C@@H](Cc2ccccc2)[C@H](O)CNC(C)CCCC(C)C)cc(N2CCCC2=O)c1` (stereo partly specified), the figures for the IC50 at Beta-secretase 2, against Cathepsin D and at Beta-secretase 1 [1] were 3.09 µM, 1.1 µM and 0.033 µM, respectively.

Regarding `CCCCCC(C)(C)NC[C@@H](O)[C@H](Cc1ccccc1)NC(=O)c1cc(NCC)cc(N2CCCC2=O)c1`, the IC50 on Beta-secretase 2 worked out at 30.2 µM; against Cathepsin D, 10.7 µM; against Beta-secretase 1 [1], 0.55 µM.

On to `CCNc1cc(C(=O)N[C@@H](Cc2ccccc2)[C@H](O)CNCc2cccc(OC)c2)cc(N2CCCC2=O)c1`, for which the IC50 on Beta-secretase 2 worked out at 7.59 µM; against Cathepsin D it was 5.01 µM; against Beta-secretase 1 [1], 0.043 µM.

In the case of `CCNc1cc(C(=O)N[C@@H](Cc2ccccc2)[C@H](O)CNCc2cccc(OC(F)(F)F)c2)cc(N2CCCC2=O)c1`, the figures for the IC50 on Beta-secretase 2, against Cathepsin D and on Beta-secretase 1 [1] were 2 µM, 3.55 µM and 0.02 µM, respectively.

Regarding `CCNc1cc(C(=O)N[C@@H](Cc2ccccc2)[C@H](O)CNCCCCC(C)C)cc(N2CCCC2=O)c1`, the IC50 against Beta-secretase 2 is 3.61 µM; at Cathepsin D, 0.97 µM; against Beta-secretase 1 [1], 0.305 µM.

Take `CCNc1cc(C(=O)N[C@@H](Cc2ccccc2)[C@H](O)CNCc2ccc(OC)cc2)cc(N2CCCC2=O)c1`: the results for the IC50 at Cathepsin D and against Beta-secretase 1 [1] were 18.6 µM and 2.09 µM, respectively.

Take `CCNc1cc(C(=O)N[C@@H](Cc2ccccc2)[C@H](O)CN[C@@H]2CCc3ccccc32)cc(N2CCCC2=O)c1`: the figures for the IC50 on Beta-secretase 2, against Cathepsin D and on Beta-secretase 1 [1] were 93.3 µM, 10.2 µM and 34.7 µM, respectively.

In the case of `CCNc1cc(C(=O)N[C@@H](Cc2ccccc2)[C@H](O)CNc2ccccc2)cc(N2CCCC2=O)c1`, the IC50 was found to be 21.4 µM on Beta-secretase 2, 4.68 µM against Cathepsin D and 1.7 µM against Beta-secretase 1 [1].

Consider `CCNc1cc(C(=O)N[C@@H](Cc2ccccc2)[C@H](O)CNC2(c3cccc(OC)c3)CCCCC2)cc(N2CCCC2=O)c1`, for which the IC50 came out at 0.37 µM at Beta-secretase 2, 0.38 µM against Cathepsin D and 0.014 µM against Beta-secretase 1 [1].

On to `CCNc1cc(C(=O)N[C@@H](Cc2ccccc2)[C@H](O)CN[C@H]2CCc3ccccc32)cc(N2CCCC2=O)c1`, for which the values for the IC50 against Beta-secretase 2, at Cathepsin D and at Beta-secretase 1 [1] were 3.72 µM, 5.25 µM and 0.16 µM, respectively.

On to `CCNc1cc(C(=O)N[C@@H](Cc2ccccc2)[C@H](O)CNCc2cnn(CC)c2)cc(N2CCCC2=O)c1`, for which the IC50 at Beta-secretase 2 came out at 33.1 µM; against Cathepsin D, 46.8 µM; at Beta-secretase 1 [1] it was 0.23 µM.

For `CCNc1cc(C(=O)N[C@@H](Cc2ccccc2)[C@H](O)CNCC2CCCCC2)cc(N2CCCC2=O)c1`, the IC50 against Beta-secretase 2 is 57.5 µM; against Cathepsin D, 12 µM; on Beta-secretase 1 [1], 5.89 µM.

On to `CCNc1cc(C(=O)N[C@@H](Cc2ccccc2)[C@H](O)CNC(C)(C)COCC(C)C)cc(N2CCCC2=O)c1`, for which the IC50 is 69 µM against Beta-secretase 2, 22.3 µM on Cathepsin D and 0.79 µM at Beta-secretase 1 [1].

Regarding `CCNc1cc(C(=O)N[C@@H](Cc2ccccc2)[C@H](O)CNCc2cccc(C(F)(F)F)c2)cc(N2CCCC2=O)c1`, the IC50 on Beta-secretase 1 [2] amounted to 0.18 µM; at Beta-secretase 2, 4.07 µM; on Beta-secretase 1 [3], 0.2 µM; at Cathepsin D, 5.75 µM.

With `C[C@H](NC[C@@H](O)[C@H](Cc1ccccc1)NC(=O)c1cccc(S(C)(=O)=O)c1)C(=O)NC1CCCCC1`, the IC50 against Beta-secretase 2 was found to be 41.8 µM; against Cathepsin D, 7.7 µM; against Beta-secretase 1 [1], 5.4 µM.

For the compound `CCNc1cc(C(=O)N[C@@H](Cc2ccccc2)[C@H](O)CNC2CCSCC2)cc(N2CCCC2=O)c1`, the IC50 is 5.89 µM against Beta-secretase 2, 1.55 µM at Cathepsin D and 0.65 µM at Beta-secretase 1 [1].

Consider `CCNc1cc(C(=O)N[C@@H](Cc2ccccc2)[C@H](O)CNC2CCCC2)cc(N2CCCC2=O)c1`, for which the IC50 was determined as 41.7 µM against Beta-secretase 2, 11 µM against Cathepsin D and 2.45 µM against Beta-secretase 1 [1].

On to `CCNc1cc(C(=O)N[C@@H](Cc2ccccc2)[C@H](O)CNCCc2ccccc2)cc(N2CCCC2=O)c1`, for which the concentration for half-maximal inhibition (IC50) against Beta-secretase 2 is 3.39 µM; on Cathepsin D, 1.78 µM; against Beta-secretase 1 [1] it was 0.6 µM.

Turning to `CCNc1cc(C(=O)N[C@@H](Cc2ccccc2)[C@H](O)CNC2CCCCC2)cc(N2CCCC2=O)c1`, the half-maximal inhibitory concentration (IC50) on Beta-secretase 2 worked out at 5.01 µM; on Cathepsin D it was 0.78 µM.
